# In US20210220374A1, “METHODS OF TREATING TE[…]” (Clarus Therapeutics, Inc., priority 2013, published 2021):
# Columns and labels:
# [1] = Contingency table classification of C(t) acceptance range as surrogate for Cavg; design: species or system hypogonadal men; conditions: for Percent of Subjects: Cavg too high & C(t) in range / Percent of Subjects: Cavg too high & C(t) too high / Percent of Subjects: Cavg too low & C(t) in range / Percent of Subjects: Cavg too low & C(t) too low / Percent of Subjects: C(t) in range / Percent of Subjects: C(t) too high / Percent of Subjects: C(t) too low / Percent of Subjects: Cavg in range & C(t) in range / Percent of Subjects: Cavg in range & C(t) too high / Percent of Subjects: Cavg in range & C(t) too low: Cavg 300-1000 ng/dL; for Percent of subjects: Cavg in Range F & C(t) in Range F (total of too high and too low): Cavg 300-1000
# Source text: For the contingency table approach, the number and percentage of subjects that fell into each of the following seven categories were enumerated, for each of the candidate time points, and for each candidate target range for Cavg, and for each candidate acceptance range for C(t). • 1. Subjects with Cavg within range and with C(t) within range • 2. Subjects with Cavg below range and with C(t) below range • 3. Subjects with Cavg above range and with C(t) above range • 4. Subjects with Cavg within range but with C(t) below range • 5. Subjects with Cavg within range but with C(t) above range • 6. Subjects with Cavg below range, but with C(t) within range • 7. Subjects with Cavg above range, but with C(t) within range
# If one defines a value as being “within range” as positive, and being “outside of range” as negative, then Group 1 is subjects that are “true positives”, Groups 2 and 3 are “true negatives”, groups 4 and 5 are “false negatives”, and groups 6 and 7 are “false positives”. Groups, 1, 2 and 3 represent successful predictions because C(t) is an appropriate surrogate for Cavg; Groups 4, 5, 6 and 7 are prediction failures because C(t) is an inaccurate surrogate for Cavg.
# Correlations and contingency table calculations were performed using built-in functions in the Excel module of Microsoft Office 2003 (Redmond, Wash.). Graphs were produced using the built-in charting capabilities of Excel.
# [2] = Example 1 single-day pharmacokinetic study of Formulation B; format: in vivo, hypogonadal men; conditions: 200 mg T equivalents BID with food
# Experimental: The study was designed as an open-label, single-day dosing, sequential, cross-over, pharmacokinetic study.
# The doses were administered as capsules to subjects five minutes after a meal (breakfast for QD, and breakfast and dinner for BID).
# [3] = C(6) alternate, C(t) acceptance 250-1700
# [4] = targeted Cavg 300-1000 ng/dL, 200 mg T BID as TU
smiles,measurement,setting,value
"CCCCCCCCCCC(=O)O[C@H]1CC[C@H]2[C@@H]3CCC4=CC(=O)CC[C@]4(C)[C@H]3CC[C@]12C [TU, testosterone undecanoate]",Percent of Subjects: Cavg too high & C(t) in range,"[1]; C(4), C(t) acceptance 250-1700",4.9%
same,Percent of Subjects: Cavg too high & C(t) too high,"[1]; C(4), C(t) acceptance 250-1700",2.4%
same,Percent of Subjects: Cavg too low & C(t) in range,"[1]; C(4), C(t) acceptance 250-1700",2.4%
same,Percent of Subjects: Cavg too low & C(t) too low,"[1]; C(4), C(t) acceptance 250-1700",9.8%
same,Percent of subjects: Cavg in Range F & C(t) in Range F (total of too high and too low),"[1]; C(4), C(t) acceptance 250-1700",12.2%
same,Percent of Subjects: C(t) in range,"[1]; C(5), C(t) acceptance 250-1400",82.9%
same,Percent of Subjects: C(t) too high,"[1]; C(5), C(t) acceptance 250-1400",4.9%
same,Percent of Subjects: C(t) too low,"[1]; C(5), C(t) acceptance 250-1400",12.2%
same,Percent of Subjects: Cavg in range & C(t) in range,"[1]; C(5), C(t) acceptance 250-1400",75.6%
same,Percent of Subjects: Cavg in range & C(t) too high,"[1]; C(5), C(t) acceptance 250-1400",2.4%
same,Percent of Subjects: Cavg in range & C(t) too low,"[1]; C(5), C(t) acceptance 250-1400",2.4%
same,Percent of Subjects: Cavg too high & C(t) in range,"[1]; C(5), C(t) acceptance 250-1400",4.9%
same,Percent of Subjects: Cavg too high & C(t) too high,"[1]; C(5), C(t) acceptance 250-1400",2.4%
same,Percent of Subjects: Cavg too low & C(t) in range,"[1]; C(5), C(t) acceptance 250-1400",2.4%
same,Percent of Subjects: Cavg too low & C(t) too low,"[1]; C(5), C(t) acceptance 250-1400",9.8%
same,Percent of subjects: Cavg in Range F & C(t) in Range F (total of too high and too low),"[1]; C(5), C(t) acceptance 250-1400",12.2%
same,Percent of Subjects: C(t) in range,[1]; [3],90.2%
same,Percent of Subjects: C(t) too high,[1]; [3],0.0%
same,Percent of Subjects: C(t) too low,[1]; [3],9.8%
same,Percent of Subjects: Cavg in range & C(t) in range,[1]; [3],80.5%
same,Percent of Subjects: Cavg in range & C(t) too high,[1]; [3],0.0%
same,Percent of Subjects: Cavg in range & C(t) too low,[1]; [3],0.0%
same,Percent of Subjects: Cavg too high & C(t) in range,[1]; [3],7.3%
same,Percent of Subjects: Cavg too high & C(t) too high,[1]; [3],0.0%
same,Percent of Subjects: Cavg too low & C(t) in range,[1]; [3],2.4%
same,Percent of Subjects: Cavg too low & C(t) too low,[1]; [3],9.8%
same,Percent of subjects: Cavg in Range F & C(t) in Range F (total of too high and too low),[1]; [3],9.8%
same,Percent of Subjects: C(t) in range,"[1]; C(6), C(t) acceptance 250-1100",75.6%
same,Percent of Subjects: C(t) too high,"[1]; C(6), C(t) acceptance 250-1100",14.6%
same,Percent of Subjects: C(t) too low,"[1]; C(6), C(t) acceptance 250-1100",9.8%
same,Percent of Subjects: Cavg in range & C(t) in range,"[1]; C(6), C(t) acceptance 250-1100",73.2%
same,Percent of Subjects: Cavg in range & C(t) too high,"[1]; C(6), C(t) acceptance 250-1100",7.3%
same,Percent of Subjects: Cavg in range & C(t) too low,"[1]; C(6), C(t) acceptance 250-1100",0.0%
same,Percent of Subjects: Cavg too high & C(t) in range,"[1]; C(6), C(t) acceptance 250-1100",0.0%
same,Percent of Subjects: Cavg too high & C(t) too high,"[1]; C(6), C(t) acceptance 250-1100",7.3%
same,Percent of Subjects: Cavg too low & C(t) in range,"[1]; C(6), C(t) acceptance 250-1100",2.4%
same,Percent of Subjects: Cavg too low & C(t) too low,"[1]; C(6), C(t) acceptance 250-1100",9.8%
same,Percent of subjects: Cavg in Range F & C(t) in Range F (total of too high and too low),"[1]; C(6), C(t) acceptance 250-1100",17.1%
same,Percent of Subjects: C(t) in range,"[1]; C(8), C(t) acceptance 200-1300",95.1%
same,Percent of Subjects: C(t) too high,"[1]; C(8), C(t) acceptance 200-1300",4.9%
same,Percent of Subjects: C(t) too low,"[1]; C(8), C(t) acceptance 200-1300",0.0%
same,Percent of Subjects: Cavg in range & C(t) in range,"[1]; C(8), C(t) acceptance 200-1300",80.5%
same,Percent of Subjects: Cavg in range & C(t) too high,"[1]; C(8), C(t) acceptance 200-1300",0.0%
same,Percent of Subjects: Cavg in range & C(t) too low,"[1]; C(8), C(t) acceptance 200-1300",0.0%
same,Percent of Subjects: Cavg too high & C(t) in range,"[1]; C(8), C(t) acceptance 200-1300",2.4%
same,Percent of Subjects: Cavg too high & C(t) too high,"[1]; C(8), C(t) acceptance 200-1300",4.9%
same,Percent of Subjects: Cavg too low & C(t) in range,"[1]; C(8), C(t) acceptance 200-1300",12.2%
same,Percent of Subjects: Cavg too low & C(t) too low,"[1]; C(8), C(t) acceptance 200-1300",0.0%
same,Percent of subjects: Cavg in Range F & C(t) in Range F (total of too high and too low),"[1]; C(8), C(t) acceptance 200-1300",4.9%
same,Percent of Subjects: C(t) in range,"[1]; C(12), C(t) acceptance 100-680",92.7%
same,Percent of Subjects: C(t) too high,"[1]; C(12), C(t) acceptance 100-680",4.9%
same,Percent of Subjects: C(t) too low,"[1]; C(12), C(t) acceptance 100-680",2.4%
same,Percent of Subjects: Cavg in range & C(t) in range,"[1]; C(12), C(t) acceptance 100-680",80.5%
same,Percent of Subjects: Cavg in range & C(t) too high,"[1]; C(12), C(t) acceptance 100-680",0.0%
same,Percent of Subjects: Cavg in range & C(t) too low,"[1]; C(12), C(t) acceptance 100-680",0.0%
same,Percent of Subjects: Cavg too high & C(t) in range,"[1]; C(12), C(t) acceptance 100-680",2.4%
same,Percent of Subjects: Cavg too high & C(t) too high,"[1]; C(12), C(t) acceptance 100-680",4.9%
same,Percent of Subjects: Cavg too low & C(t) in range,"[1]; C(12), C(t) acceptance 100-680",9.8%
same,Percent of Subjects: Cavg too low & C(t) too low,"[1]; C(12), C(t) acceptance 100-680",2.4%
same,Percent of subjects: Cavg in Range F & C(t) in Range F (total of too high and too low),"[1]; C(12), C(t) acceptance 100-680",7.3%
same,Percent of Subjects: Cavg in range,[1]; [4],80.5%
same,Percent of Subjects: Cavg to low,[1]; [4],12.2%
same,Percent of Subjects: Cavg too high,[1]; [4],7.3%
same,Subjects achieving a serum T Cavg above 300 ng/dL,[2],75%
